Measured values as given in ChEMBL document CHEMBL4665682, “Fragment Linking Strategies for Structure-Based Drug Design” (J Med Chem, 2020).

Experiments:
[1] = Binding affinity to His6-tagged Mycobacterium tuberculosis pantothenate synthetase expressed in Escherichia coli C41(DE3) measured over 30 mins by isothermal titration calorimetry
[2] = Binding affinity to 23S rRNA U1061A mutant (unknown origin) by mass spectrometry
[3] = Inhibition of Mycobacterium tuberculosis EthR assessed as reduction in protein interaction with immobilized ethA promoter DNA by SPR assay
[4] = biological target: T1, Histone deacetylase 8 (Homo sapiens, UniProt Q9BY41); assay: Inhibition of HDAC8 (unknown origin) using acetylated lysine as substrate incubated for 20 mins by Lineweaver-Burk double-reciprocal plot analysis
T1 sequence (Q9BY41 whole entry): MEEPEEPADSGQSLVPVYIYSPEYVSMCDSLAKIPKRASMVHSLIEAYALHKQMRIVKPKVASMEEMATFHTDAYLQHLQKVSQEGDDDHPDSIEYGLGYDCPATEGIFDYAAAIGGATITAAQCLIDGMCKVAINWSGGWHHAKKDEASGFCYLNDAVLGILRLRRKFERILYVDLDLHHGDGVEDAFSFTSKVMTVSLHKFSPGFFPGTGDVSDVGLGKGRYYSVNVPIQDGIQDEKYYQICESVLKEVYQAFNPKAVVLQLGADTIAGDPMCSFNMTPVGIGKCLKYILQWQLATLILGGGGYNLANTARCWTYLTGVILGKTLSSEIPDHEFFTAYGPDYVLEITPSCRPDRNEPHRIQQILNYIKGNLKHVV

[5] = biological target: T2, Glycylpeptide N-tetradecanoyltransferase 1 (Homo sapiens, UniProt P30419)
T2 sequence (P30419 whole entry): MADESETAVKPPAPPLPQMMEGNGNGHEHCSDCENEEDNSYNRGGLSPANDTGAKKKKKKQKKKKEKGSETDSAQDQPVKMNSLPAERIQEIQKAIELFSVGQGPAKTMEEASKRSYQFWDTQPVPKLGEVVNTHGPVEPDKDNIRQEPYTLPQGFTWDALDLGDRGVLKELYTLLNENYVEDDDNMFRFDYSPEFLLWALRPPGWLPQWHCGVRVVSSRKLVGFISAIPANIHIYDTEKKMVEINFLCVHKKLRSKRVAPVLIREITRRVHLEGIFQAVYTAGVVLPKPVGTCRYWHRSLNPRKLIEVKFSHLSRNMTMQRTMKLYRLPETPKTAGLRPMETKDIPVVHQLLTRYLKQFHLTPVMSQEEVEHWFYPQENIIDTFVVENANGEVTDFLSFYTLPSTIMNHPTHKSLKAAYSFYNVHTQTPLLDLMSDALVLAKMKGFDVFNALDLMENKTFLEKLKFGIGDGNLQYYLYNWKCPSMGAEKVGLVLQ
Description: Inhibition of human NMT1 by fluorescence method

[6] = Inhibition of avidin (unknown origin)
[7] = biological target: T3, Heat shock protein HSP90 (Homo sapiens, UniProt P07900+P08238); assay: Inhibition of HSP90 (unknown origin) by confocal fluorescence-based biochemical assay; type: protein assay
[8] = biological target: Bcl-2-like protein 1 (Homo sapiens, UniProt Q07817)
Description: Inhibition of FITC-labeled Bak BH3 peptide binding to His6-tagged GST-fused Bcl-xL (unknown origin) expressed in Escherichia coli BL21 preincubated for 10 mins followed by Bak BH3 peptide addition and measured after 30 mins by fluorescence polarization-based competitive binding assay

[9] = biological target: T3, Heat shock protein HSP90
Description: Binding affinity to N-terminal human HSP90 (D9 to E236 residues) expressed in Escherichia coli BL21(DE3) by 1H-13C HSQC-NMR spectroscopy

[10] = Inhibition of human lung tryptase using Tosyl-Gly-Pro-Arg-p-nitroanilide as substrate preincubated for 5 mins followed by substrate addition and measured after 15 mins
[11] = biological target: CDK2/Cyclin A2 (Homo sapiens, UniProt P24941); assay: Inhibition of CDK2/Cyclin A (unknown origin) using histone H1 as substrate by scintillation counting method; type: protein-complex assay
[12] = biological target: T4, Endothiapepsin (Cryphonectria parasitica, UniProt P11838); assay: Inhibition of Endothia parasitica endothiapepsin using Abz-Thr-Ile-Nle-p-nitro-Phe-Gln-Arg-NH2 as substrate by fluorescence method
T4 sequence (P11838 whole entry): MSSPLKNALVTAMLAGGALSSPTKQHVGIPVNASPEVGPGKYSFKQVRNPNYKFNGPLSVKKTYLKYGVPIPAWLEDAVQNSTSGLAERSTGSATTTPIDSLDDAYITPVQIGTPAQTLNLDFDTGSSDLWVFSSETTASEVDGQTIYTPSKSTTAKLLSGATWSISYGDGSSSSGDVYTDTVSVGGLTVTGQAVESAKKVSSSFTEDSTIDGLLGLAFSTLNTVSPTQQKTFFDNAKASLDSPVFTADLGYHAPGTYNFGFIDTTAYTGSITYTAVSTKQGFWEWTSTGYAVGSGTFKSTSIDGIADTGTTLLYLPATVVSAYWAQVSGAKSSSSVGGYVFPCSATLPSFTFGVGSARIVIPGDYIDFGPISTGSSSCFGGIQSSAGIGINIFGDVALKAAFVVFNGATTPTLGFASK

[13] = Binding affinity to FKBP (unknown origin) by 15N-HSQC-NMR spectroscopy; parameters: species or system Homo sapiens
[14] = biological target: T5, Chitinase B (Serratia marcescens, UniProt P11797); assay: Inhibition of Serratia marcescens chitinase B
T5 sequence (P11797 whole entry): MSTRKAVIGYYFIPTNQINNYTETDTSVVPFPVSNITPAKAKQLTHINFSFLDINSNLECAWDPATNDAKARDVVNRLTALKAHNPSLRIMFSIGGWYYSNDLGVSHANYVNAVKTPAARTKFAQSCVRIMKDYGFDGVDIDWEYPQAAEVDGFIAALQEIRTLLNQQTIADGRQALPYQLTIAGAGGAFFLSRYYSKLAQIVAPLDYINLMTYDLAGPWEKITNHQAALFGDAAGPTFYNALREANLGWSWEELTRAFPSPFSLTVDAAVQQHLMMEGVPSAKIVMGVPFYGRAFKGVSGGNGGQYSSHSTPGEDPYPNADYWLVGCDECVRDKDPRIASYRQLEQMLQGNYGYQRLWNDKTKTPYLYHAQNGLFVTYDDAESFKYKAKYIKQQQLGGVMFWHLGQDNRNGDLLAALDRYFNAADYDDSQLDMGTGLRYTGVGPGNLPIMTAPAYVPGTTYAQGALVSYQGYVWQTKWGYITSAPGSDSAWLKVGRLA

[15] = biological target: Proto-oncogene tyrosine-protein kinase Src (Homo sapiens, UniProt P12931); assay: Inhibition of c-Src (unknown origin) using biotin-KVEKIGEGTYGVVYK as substrate by ELISA
[16] = Antagonist activity at IL-2/IL-2RA (unknown origin) assessed as reduction in IL-2/IL-2RA protein-protein interaction by scintillation proximity assay; parameters: species or system Homo sapiens
[17] = Binding affinity to human E-selectin/IgG expressed in CHO-K1 cells by surface plasmon resonance
[18] = biological target: Peptidyl-prolyl cis-trans isomerase B (Homo sapiens, UniProt P23284); assay: Inhibition of C-terminal His6-tagged CypB (unknown origin) expressed in Escherichia coli C41(DE3) using Suc-Ala-Ala-Cis-Pro-Phe-pNA as substrate by spectrophotometric analysis
[19] = Inhibition of C-terminal His6-tagged human CypD K133I mutant expressed in Escherichia coli BL21(DE3) using Suc-Ala-Ala-Cis-Pro-Phe-pNA as substrate by spectrophotometric analysis
[20] = biological target: Peptidyl-prolyl cis-trans isomerase A (Homo sapiens, UniProt P62937)
[21] = biological target: T3, Heat shock protein HSP90; assay: Displacement of biotin-labelled geldanamycin from human HSP90 (D9 to E236 residues) incubated for 3 hrs by FRET assay; type: protein assay
[22] = biological target: T3, Heat shock protein HSP90; assay: Inhibition of human HSP90 (D9 to E236 residues) by fluorescence spectroscopy; type: protein assay
[23] = Binding affinity to FKBP (unknown origin) by fluorescence-based assay; parameters: species or system Homo sapiens

Bcl-2-like protein 1, sequence (Q07817 whole entry): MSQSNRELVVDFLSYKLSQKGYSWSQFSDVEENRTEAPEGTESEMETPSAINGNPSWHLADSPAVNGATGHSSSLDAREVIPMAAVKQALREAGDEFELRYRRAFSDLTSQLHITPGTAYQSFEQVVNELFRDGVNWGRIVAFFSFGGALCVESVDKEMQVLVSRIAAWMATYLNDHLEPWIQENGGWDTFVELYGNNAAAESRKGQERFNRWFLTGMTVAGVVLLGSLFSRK
Peptidyl-prolyl cis-trans isomerase A, sequence (P62937 whole entry, the tested form may be a part): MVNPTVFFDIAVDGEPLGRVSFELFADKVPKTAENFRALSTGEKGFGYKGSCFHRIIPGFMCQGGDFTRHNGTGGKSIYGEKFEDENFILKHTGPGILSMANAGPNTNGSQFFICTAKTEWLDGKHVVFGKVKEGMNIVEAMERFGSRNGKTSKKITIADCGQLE
Proto-oncogene tyrosine-protein kinase Src, sequence (P12931 2-536 limits assumed): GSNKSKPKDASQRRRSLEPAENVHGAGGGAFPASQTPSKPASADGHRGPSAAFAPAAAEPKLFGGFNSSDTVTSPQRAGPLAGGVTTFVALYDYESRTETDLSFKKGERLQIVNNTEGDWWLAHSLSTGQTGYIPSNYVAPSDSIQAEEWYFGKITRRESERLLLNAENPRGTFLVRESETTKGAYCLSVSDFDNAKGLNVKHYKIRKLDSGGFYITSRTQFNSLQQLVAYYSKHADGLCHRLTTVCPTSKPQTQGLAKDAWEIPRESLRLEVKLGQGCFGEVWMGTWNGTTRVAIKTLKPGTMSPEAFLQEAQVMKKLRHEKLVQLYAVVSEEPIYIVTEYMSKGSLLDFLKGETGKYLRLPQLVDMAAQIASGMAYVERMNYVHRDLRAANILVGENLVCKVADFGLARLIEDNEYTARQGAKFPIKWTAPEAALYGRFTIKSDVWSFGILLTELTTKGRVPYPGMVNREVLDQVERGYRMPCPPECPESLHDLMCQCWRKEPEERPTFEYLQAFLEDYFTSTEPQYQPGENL
Peptidyl-prolyl cis-trans isomerase B, sequence (P23284 whole entry): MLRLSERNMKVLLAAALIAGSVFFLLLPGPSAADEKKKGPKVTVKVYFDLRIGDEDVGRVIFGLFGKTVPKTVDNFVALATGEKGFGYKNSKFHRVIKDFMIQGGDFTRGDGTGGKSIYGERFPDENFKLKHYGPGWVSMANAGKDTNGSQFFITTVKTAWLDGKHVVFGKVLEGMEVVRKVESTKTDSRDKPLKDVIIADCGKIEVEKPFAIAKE

SMILES: COc1ccc2c(ccn2CC(=O)O)c1
- Kd [1]: 500 µM

SMILES: O=C(O)c1ccc2nc(O)c(O)nc2c1
- Kd [2]: > 100 µM

SMILES: O=C(CCc1ccccc1)N1CC[C@@H](SS[C@@H]2CCN(C(=O)CCc3ccccc3)C2)C1
- IC50 [3]: 0.97 µM

SMILES: C#Cc1ccc(C(=O)NO)s1
- IC50 [4]: 1 µM

SMILES: Cc1nn(C)c(C)c1CCOc1c(-c2ccc3c(c2)c(CN(C)C)nn3C)ccc(F)c1F
- IC50 [5]: < 0.001 µM

SMILES: CCCCCC(=O)O [HEXANOATE]
- Ki [6]: 260 µM

SMILES: C[C@H]1CNC(=O)N1
- Ki [6]: 34 µM

SMILES: COC(=O)c1c(C)n[nH]c1-c1ccco1
- IC50 [7]: 1000 µM

SMILES: CC1(C)CCN(c2ccc(C(=O)NS(=O)(=O)c3ccc(NCCSc4ccccc4)c([N+](=O)[O-])c3)cc2)CC1
- IC50 [8]: 0.0788 µM

SMILES: [N-]=[N+]=NS(=O)(=O)c1ccc(NCCSc2ccccc2)c([N+](=O)[O-])c1
- IC50 [8]: > 100 µM

SMILES: O=C1OCC/C1=C\Nc1ccccc1
- Kd [9]: 150 µM

SMILES: O=C(NO)c1ccc(-c2cn(CC34CC5CC(CC(C5)C3)C4)nn2)s1
- IC50 [4]: 4 µM

SMILES: N=C(N)c1ccccc1 [BENZAMIDINE]
- Ki [10]: 22 µM

SMILES: O=C1Nc2ccc(Cl)cc2C1=O
- IC50 [11]: > 1000 µM

SMILES: C#Cc1ccc(N2CCNCC2)cc1
- IC50 [12]: 43 µM

SMILES: O=C(O)c1cc2ccccc2o1
- Kd [1]: 1000 µM

SMILES: COC(=O)[C@@H]1CCCCN1C(=O)C(=O)c1cc(OC)c(OC)c(OC)c1
- Kd [13]: 2 µM

SMILES: C[C@@H]1NC(=O)N[C@@H]1CCCCCC(=O)O
- Ki [6]: 4.1e-07 µM

SMILES: CNC(=O)NC(=N)NCCC[C@H](NC(=O)CN=[N+]=[N-])C(=O)N(Cc1ccccc1)Cc1ccccc1
- IC50 [14]: 0.58 µM

SMILES: CCn1c2ccccc2c2cc(/C=N/OC)ccc21
- IC50 [15]: 40 µM

SMILES: NNc1ccc(S(N)(=O)=O)cc1
- IC50 [11]: > 1000 µM

SMILES: NCC[C@@H](NC(=O)c1ccc(-c2cccc(NC(=O)c3ccc4nc(O)c(O)nc4c3)c2)o1)C(=O)N1CCNCC1
- Kd [2]: 6.5 µM

SMILES: O=C(Nc1ccc(O)cc1)c1ccc(O)cc1
- Kd [13]: 100 µM

SMILES: CC(C)C[C@@H](N=C(N)N)C(=O)NCC(=O)N1CCC(c2cc(-c3cccc(Cl)c3Cl)nn2C)CC1
- IC50 [16]: 3 µM

SMILES: [N-]=[N+]=NCC12CC3CC(CC(C3)C1)C2
- IC50 [4]: > 1000 µM

SMILES: N=C(N)c1ccc(C(=O)NCc2ccc(OCCCCCOc3ccc(CNC(=O)c4ccc(C(=N)N)cc4)cc3)cc2)cc1
- Ki [10]: < 1e-05 µM

SMILES: CN(C)c1ncnc2nc[nH]c12 [DIMETHYLADENINE]
- IC50 [7]: 1500 µM

SMILES: C[C@@H]1O[C@@H](O[C@H]2[C@@H](O[C@@H]3O[C@H](CO)[C@H](O)[C@H](O[C@@H](CC4CCCCC4)C(=O)O)[C@H]3OC(=O)c3ccccc3)C[C@H](C(=O)NCCCc3cn(CCCn4ccc5cc([N+](=O)[O-])ccc54)nn3)C[C@@H]2C)[C@@H](O)[C@H](O)[C@@H]1O
- Kd [17]: 0.03 µM

SMILES: O=CN1CCCC1
- IC50 [18]: > 5000 µM
- IC50 [19]: > 5000 µM
- IC50 [20]: > 5000 µM

SMILES: NCC[C@@H](NC(=O)c1ccco1)C(=O)N1CCNCC1
- Kd [2]: > 100 µM

SMILES: C#CCO/N=C/c1ccnc2ccccc12
- IC50 [14]: > 100 µM

SMILES: O=C(CCc1ccccc1)N1CCCC1
- IC50 [3]: 350 µM

SMILES: O=C(NO)c1ccc(-c2cnnn2CC23CC4CC(CC(C4)C2)C3)s1
- IC50 [4]: 0.51 µM

SMILES: Cc1cc(CNS(=O)(=O)c2ccc(N/C=C3\CCOC3=O)cc2)nc(N)n1
- Ki [21]: 1.9 µM

SMILES: CSc1ccccc1C1CCCN1C(=O)C(NC(=O)NCc1ccc(N)cc1)c1ccccc1 (stereo not drawn)
- IC50 [18]: 0.08 µM
- IC50 [19]: 0.2 µM
- IC50 [20]: 0.1 µM

SMILES: O=C(CCC1CCCC1)N1CCCC1
- IC50 [3]: 280 µM

SMILES: NC(Cc1c[nH]c2ccccc12)C(=O)N/N=C/c1cccc(/C=N/NC(=O)C(N)Cc2c[nH]c3ccccc23)c1 (stereo not drawn)
- IC50 [12]: 0.054 µM

SMILES: CCn1c2ccccc2c2cc(/C=N/OCCO/N=C/c3ccc(O)c(O)c3)ccc21
- IC50 [15]: 0.064 µM

SMILES: Cc1cc(C#Cc2ccccc2N/C=C2\CCOC2=O)nc(N)n1
- Ki [22]: 4 µM

SMILES: COC(=O)[C@H]1C[C@H](O[C@@H]2O[C@H](CO)[C@H](O)[C@H](O[C@@H](CC3CCCCC3)C(=O)O)[C@H]2OC(=O)c2ccccc2)[C@H](O[C@@H]2O[C@@H](C)[C@@H](O)[C@@H](O)[C@@H]2O)[C@@H](C)C1
- Kd [17]: 1.9 µM

SMILES: CCOC(=O)c1c(C)nc2ccccc2c1C
- IC50 [5]: > 100 µM

SMILES: COc1cc(C(=O)C(=O)N2CCCC[C@H]2C(=O)OCCCc2ccc(C(=O)Nc3ccc(O)cc3)cc2O)cc(OC)c1OC
- Kd [23]: 0.049 µM

SMILES: CC(C)C[C@@H](NC(=N)N)C(=O)NCC(=O)N1CCC(c2cc(-c3ccc(OCc4ccc(C(=O)O)o4)c(Cl)c3Cl)nn2C)CC1
- IC50 [16]: 0.06 µM

SMILES: CC1(C)CCN(c2ccc(C(=O)S)cc2)CC1
- IC50 [8]: > 100 µM
